Laboratory results: patent publication US20250049800A1, “VCP/p97 INHIBITOR FOR THE TREATMENT OF CANCER” (CASI Pharmaceuticals, Inc., priority 2021, published 2025)
Values joined by “and” are separate entries in the source; they are usually repeats but may differ in a detail not shown here. Equal entries are not always repeated.

Assay: Phase I study: plasma pharmacokinetics of orally administered Compound 1
Format: in vivo, human
Details: for AUC(0-inf) / AUC(0-t) / Cmax / half-life / Tmax: human, plasma, oral
Excerpt: The study was designed as a multicenter, open-label Phase 1 study of orally administered Compound 1 in participants with R/R AML or participants with R/R intermediate- to high-risk MDS. […] Additional cohorts for participants with R/R intermediate- to high-risk MDS following hypomethylating agents or other AML cohorts may be added at a later time.
Similar dosing may be used in the dose expansion part of the study. […] Additional intensive PK testing is collected for any participants undergoing intra-patient dose escalation.
At the conclusion of the 900 mg QD cohort, subjects were enrolled in cohorts for BID dosing, starting with the 300 mg BID dosing.
Subjects were treated with Compound 1 QD as described in Example 2.
Subjects were treated with Compound 1 QD or BID dosing as described in Example 2 and blood samples were taken from subjects and analyzed as described in Example 3. Tables 16 and 17 show pharmacokinetic analyses for QD dosing for 100 mg, 175 mg, 275 mg, 350 mg, 400 mg and 900 mg cohorts and BID dosing for 300 mg and 350 mg cohorts. Abbreviations in Table 16 and Table 17: AR=Day 4 AUC0-24/Day 1 AUC0-24, NR=not reported; NA=not available. […] FIG. 9 and FIG. 10 show AUC for day 1 and day 4 of dosing with doses between 350-900 mg QD compared with 350 mg BID.

[1] = 300 mg, 300 mg BID, Day 1, 1 subject
[2] = 300 mg, 300 mg BID, Day 4, 1 subject
[3] = 350 mg, 350 mg BID, Day 1, Mean
[4] = 350 mg, 350 mg BID, Day 4, Mean

Cc1cc2c(C(N)=O)cccc2n1-c1nc2c(c(NCc3ccccc3)n1)CCCN2 [Compound 1, 1-(4-(benzylamino)-5,6,7,8-tetrahydropyrido[2,3-d]pyrimidin-2-yl)-2-methyl-1H-indole-4-carboxamide]
exposure level increases between the doses (25 mg to 450 mg QD): generally proportional and linear | Cmax/Dose (100 mg QD, Day 1, Mean): 0.00372 µM/mg | exposure of BID dosing compared with QD dosing (350 mg BID vs 600, 750 and 900 mg QD, Day 1): higher level of exposure | Cmax/Dose (450 mg QD, Day 1, Mean): 0.00481 µM/mg | AUC0-inf/Dose (450 mg QD, Day 4, Mean): 0.0853 µM·h/mg | AR (Cohort 1 (25 mg QD), Day 4): 0.914 | plasma exposure compared with CB-5083 (Compound 1 25 mg QD vs CB-5083 40 mg QD): significantly higher plasma exposure | accumulation (between days 1 and 4): No accumulation | plasma exposure compared with CB-5083 (human subjects): significantly higher plasma exposure than CB-5083 | AUC(0-inf) (100 mg, 100 mg QD, Day 1, Mean): 1780 ng·h/mL and 4.31 µM·h | AUC(0-t) (100 mg, 100 mg QD, Day 1, Mean): 1420 ng·h/mL and 3.43 µM·h | Cmax (100 mg, 100 mg QD, Day 1, Mean): 154 ng/mL and 372 nM | half-life (100 mg, 100 mg QD, Day 1, Mean): 6.87 h | AUC(0-inf) (100 mg, 100 mg QD, Day 4, Mean): 3020 ng·h/mL and 7.32 µM·h | AUC(0-t) (100 mg, 100 mg QD, Day 4, Mean): 2750 ng·h/mL and 6.66 µM·h | Cmax (100 mg, 100 mg QD, Day 4, Mean): 356 ng/mL and 861 nM | Tmax (100 mg, 100 mg QD, Day 4, Mean): 2.67 h | half-life (100 mg, 100 mg QD, Day 4, Mean): 7.84 h | AUC(0-inf) (175 mg, 175 mg QD, Day 1, Mean): 5260 ng·h/mL and 12.7 µM·h | AUC(0-t) (175 mg, 175 mg QD, Day 1, Mean): 4380 ng·h/mL and 10.6 µM·h | Cmax (175 mg, 175 mg QD, Day 1, Mean): 636 ng/mL | Tmax (175 mg, 175 mg QD, Day 1, Mean): 3.33 h | half-life (175 mg, 175 mg QD, Day 1, Mean): 11.4 h | AUC(0-inf) (175 mg, 175 mg QD, Day 4, Mean): 2950 ng·h/mL and 7.13 µM·h | AUC(0-t) (175 mg, 175 mg QD, Day 4, Mean): 8760 ng·h/mL and 21.2 µM·h | Cmax (175 mg, 175 mg QD, Day 4, Mean): 490 ng/mL and 1.19 µM | Tmax (175 mg, 175 mg QD, Day 4, Mean): 13.5 h | half-life (175 mg, 175 mg QD, Day 4, Mean): 6.01 h | AUC(0-inf) (275 mg, 275 mg QD, Day 1, Mean): 4660 ng·h/mL and 11.3 µM·h | AUC(0-t) (275 mg, 275 mg QD, Day 1, Mean): 4140 ng·h/mL and 10 µM·h | Cmax (275 mg, 275 mg QD, Day 1, Mean): 679 ng/mL and 1.65 µM | Tmax (275 mg, 275 mg QD, Day 1, Mean): 2.57 h | half-life (275 mg, 275 mg QD, Day 1, Mean): 5.08 h | AUC(0-inf) (275 mg, 275 mg QD, Day 4, Mean): 9660 ng·h/mL and 23.4 µM·h | AUC(0-t) (275 mg, 275 mg QD, Day 4, Mean): 9230 ng·h/mL and 22.4 µM·h | Cmax (275 mg, 275 mg QD, Day 4, Mean): 827 ng/mL and 2 µM | Tmax (275 mg, 275 mg QD, Day 4, Mean): 3.6 h | half-life (275 mg, 275 mg QD, Day 4, Mean): 8.9 h | AUC(0-t) [1]: 12200 ng·h/mL and 29.6 µM·h | Cmax [1]: 965 ng/mL and 2.34 µM | Tmax [1]: 12 h | AUC(0-inf) [2]: 27700 ng·h/mL and 67 µM·h | AUC(0-t) [2]: 27400 ng·h/mL and 66.4 µM·h | Cmax [2]: 1920 ng/mL and 4.65 µM | Tmax [2]: 3 h | AUC(0-inf) [3]: 29600 ng·h/mL and 71.8 µM·h | AUC(0-t) [3]: 14600 ng·h/mL and 35.3 µM·h | Cmax [3]: 1340 ng/mL and 3.25 µM | Tmax [3]: 7.63 h | AUC(0-inf) [4]: 31800 ng·h/mL and 77 µM·h | AUC(0-t) [4]: 23400 ng·h/mL and 56.7 µM·h | Cmax [4]: 2020 ng/mL and 4.89 µM | Tmax [4]: 3.25 h | AUC(0-inf) (350 mg, 350 mg QD, Day 1, Mean): 5330 ng·h/mL and 12.9 µM·h | AUC(0-t) (350 mg, 350 mg QD, Day 1, Mean): 5200 ng·h/mL and 12.6 µM·h | Cmax (350 mg, 350 mg QD, Day 1, Mean): 746 ng/mL and 1.81 µM | Tmax (350 mg, 350 mg QD, Day 1, Mean): 3.2 h | half-life (350 mg, 350 mg QD, Day 1, Mean): 4.48 h | AUC(0-inf) (350 mg, 350 mg QD, Day 4, Mean): 8570 ng·h/mL and 20.8 µM·h | AUC(0-t) (350 mg, 350 mg QD, Day 4, Mean): 8440 ng·h/mL and 20.4 µM·h | Cmax (350 mg, 350 mg QD, Day 4, Mean): 834 ng/mL and 2.02 µM | Tmax (350 mg, 350 mg QD, Day 4, Mean): 4 h | half-life (350 mg, 350 mg QD, Day 4, Mean): 7.55 h | AUC(0-inf) (450 mg, 450 mg QD, Day 1, Mean): 8860 ng·h/mL and 21.5 µM·h | AUC(0-t) (450 mg, 450 mg QD, Day 1, Mean): 8340 ng·h/mL and 20.2 µM·h | Cmax (450 mg, 450 mg QD, Day 1, Mean): 895 ng/mL and 2.17 µM | Tmax (450 mg, 450 mg QD, Day 1, Mean): 3 h | half-life (450 mg, 450 mg QD, Day 1, Mean): 6.05 h | AUC(0-inf) (450 mg, 450 mg QD, Day 4, Mean): 15900 ng·h/mL and 38.4 µM·h | AUC(0-t) (450 mg, 450 mg QD, Day 4, Mean): 14500 ng·h/mL | Cmax (450 mg, 450 mg QD, Day 4, Mean): 1350 ng/mL and 3.28 µM | Tmax (450 mg, 450 mg QD, Day 4, Mean): 4 h | half-life (450 mg, 450 mg QD, Day 4, Mean): 9.62 h | AUC(0-inf) (600 mg, 600 mg QD, Day 1, Mean): 6500 ng·h/mL and 15.7 µM·h | AUC(0-t) (600 mg, 600 mg QD, Day 1, Mean): 5710 ng·h/mL and 13.8 µM·h | Cmax (600 mg, 600 mg QD, Day 1, Mean): 799 ng/mL and 1.93 µM | Tmax (600 mg, 600 mg QD, Day 1, Mean): 3.6 h | half-life (600 mg, 600 mg QD, Day 1, Mean): 5.94 h | AUC(0-inf) (600 mg, 600 mg QD, Day 4, Mean): 18200 ng·h/mL and 44 µM·h | AUC(0-t) (600 mg, 600 mg QD, Day 4, Mean): 17200 ng·h/mL and 41.7 µM·h | Cmax (600 mg, 600 mg QD, Day 4, Mean): 1960 ng/mL and 4.75 µM | Tmax (600 mg, 600 mg QD, Day 4, Mean): 3.4 h | half-life (600 mg, 600 mg QD, Day 4, Mean): 9.77 h | AUC(0-inf) (750 mg, 750 mg QD, Day 1, Mean): 6160 ng·h/mL and 14.9 µM·h | AUC(0-t) (750 mg, 750 mg QD, Day 1, Mean): 5960 ng·h/mL and 14.4 µM·h | Cmax (750 mg, 750 mg QD, Day 1, Mean): 796 ng/mL and 1.93 µM | Tmax (750 mg, 750 mg QD, Day 1, Mean): 3.33 h | half-life (750 mg, 750 mg QD, Day 1, Mean): 4.49 h | AUC(0-inf) (750 mg, 750 mg QD, Day 4, Mean): 13200 ng·h/mL and 32.1 µM·h | AUC(0-t) (750 mg, 750 mg QD, Day 4, Mean): 12900 ng·h/mL and 31.3 µM·h | Cmax (750 mg, 750 mg QD, Day 4, Mean): 2260 ng/mL and 5.48 µM | Tmax (750 mg, 750 mg QD, Day 4, Mean): 2.5 h | half-life (750 mg, 750 mg QD, Day 4, Mean): 6.67 h | AUC(0-inf) (900 mg, 900 mg QD, Day 1, Mean): 14000 ng·h/mL and 33.9 µM·h | AUC(0-t) (900 mg, 900 mg QD, Day 1, Mean): 12300 ng·h/mL and 29.8 µM·h | Cmax (900 mg, 900 mg QD, Day 1, Mean): 1550 ng/mL and 3.76 µM | Tmax (900 mg, 900 mg QD, Day 1, Mean): 2.5 h | half-life (900 mg, 900 mg QD, Day 1, Mean): 5.71 h | AUC(0-inf) (900 mg, 900 mg QD, Day 4, Mean): 27000 ng·h/mL and 65.3 µM·h | AUC(0-t) (900 mg, 900 mg QD, Day 4, Mean): 26700 ng·h/mL and 64.6 µM·h | Cmax (900 mg, 900 mg QD, Day 4, Mean): 3220 ng/mL and 7.8 µM | Tmax (900 mg, 900 mg QD, Day 4, Mean): 3.33 h | half-life (900 mg, 900 mg QD, Day 4, Mean): 6.47 h | Cmax (175 mg QD, Day 1, Mean): 1540 nM | AUC(0-t) (450 mg QD, Day 4, Mean): 35.2 µM·h | exposures compared with CB-5083 (vs CB-5083 at greater than 200 mg, FIG. 4): greater than dosing CB-5083 at greater than 200 mg
